What was measured:
[1] = Inhibitory concentration of compound against Alpha-mannosidase of Almond; not active; design: species or system Prunus dulcis
[2] = Inhibitory concentration of compound against Alpha-glucosidase from Baker's yeast; not active at less than 50% inhibition; design: species or system Saccharomyces cerevisiae
[3] = Inhibitory concentration of compound against Alpha-glucosidase from rice; not active at less than 50% inhibition
[4] = tested on: beta-glucosidase (Prunus dulcis); experiment: Inhibitory concentration of compound against Beta-glucosidase from Almond;not active
[5] = Inhibitory concentration of compound against Alpha-glucosidase from B. stearothermophilus; not active at less than 50% inhibition; design: species or system Geobacillus stearothermophilus
[6] = Inhibitory concentration of compound against Alpha-glucosidase from recombinant S. cerevisiae; not active at less than 50% inhibition; design: species or system Saccharomyces cerevisiae
[7] = Inhibitory concentration of compound against Alpha-glucosidase from rice
Beta-galactosidase = Beta-galactosidase (Escherichia coli, UniProt Q8VNN2); experiment: Inhibitory effect towards Beta-galactosidase at a concentration of 2 mM from E. coli; no inhibitory effect
[8] = (§1) Inhibitory concentration of compound against Alpha-mannosidase of Almond; design: species or system Prunus dulcis
Prunus dulcis = experiment: as §1
[9] = Inhibitory concentration of compound against Alpha-glucosidase in Bacillus stearothermophilus; design: species or system Geobacillus stearothermophilus
[10] = Inhibitory concentration of compound against Alpha-glucosidase in Baker's yeast; not active at less than 50% inhibition; design: species or system Saccharomyces cerevisiae
[11] = Inhibitory concentration of compound against Alpha-glucosidase in recombinant S. cerevisiae; not active; design: species or system Saccharomyces cerevisiae
[12] = Inhibitory concentration of compound against Alpha-glucosidase in rice
[13] = tested on: alpha-galactosidase (Coffea arabica); experiment: Inhibitory effect towards Alpha-galactosidase at a concentration of 2 mM from coffee beans; no inhibitory effect
[14] = Inhibitory concentration of compound (10:1 ratio of 10a/10b) against Alpha-mannosidase of Almond; design: species or system Prunus dulcis
[15] = Inhibitory concentration of compound (4:6 ratio of 10a/10b) against Alpha-mannosidase of Almond; design: species or system Prunus dulcis
[16] = Inhibitory concentration of compound (10:1 ratio of 10a/10b) against Alpha-glucosidase from Bacillus stearothermophilus; design: species or system Geobacillus stearothermophilus
[17] = Inhibitory concentration of compound (10:1 ratio of 10a/10b) against Alpha-glucosidase from Baker's yeast; design: species or system Saccharomyces cerevisiae
[18] = Inhibitory concentration of compound (4:6 ratio of 10a/10b) against Alpha-glucosidase from Baker's yeast; design: species or system Saccharomyces cerevisiae
[19] = Inhibitory concentration of compound (10:1 ratio of 10a/10b) against Alpha-glucosidase from recombinant Saccharomyces cerevisiae
[20] = Inhibitory concentration of compound (4:6 ratio of 10a/10b) against Alpha-glucosidase from recombinant Saccharomyces cerevisiae
[21] = Inhibitory concentration of compound (10:1 ratio of 10a/10b) against Alpha-glucosidase from rice
[22] = Inhibitory concentration of compound (4:6 ratio of 10a/10b) against Alpha-glucosidase from rice
[23] = Inhibitory concentration of compound (4:6 ratio of 10a/10b) against Alpha-glucosidase from Bacillus stearothermophilus; design: species or system Geobacillus stearothermophilus
[24] = tested on: beta-glucosidase (Prunus dulcis); experiment: Inhibitory concentration of compound (4:6 ratio of 10a/10b) against Beta-Glucosidase from Almond; not active
[25] = tested on: beta-glucosidase (Prunus dulcis); experiment: Inhibitory concentration of compound (10:1 ratio of 10a/10b) against Beta-glucosidase from Almond; not active

Chain of Beta-galactosidase (Q8VNN2 whole entry): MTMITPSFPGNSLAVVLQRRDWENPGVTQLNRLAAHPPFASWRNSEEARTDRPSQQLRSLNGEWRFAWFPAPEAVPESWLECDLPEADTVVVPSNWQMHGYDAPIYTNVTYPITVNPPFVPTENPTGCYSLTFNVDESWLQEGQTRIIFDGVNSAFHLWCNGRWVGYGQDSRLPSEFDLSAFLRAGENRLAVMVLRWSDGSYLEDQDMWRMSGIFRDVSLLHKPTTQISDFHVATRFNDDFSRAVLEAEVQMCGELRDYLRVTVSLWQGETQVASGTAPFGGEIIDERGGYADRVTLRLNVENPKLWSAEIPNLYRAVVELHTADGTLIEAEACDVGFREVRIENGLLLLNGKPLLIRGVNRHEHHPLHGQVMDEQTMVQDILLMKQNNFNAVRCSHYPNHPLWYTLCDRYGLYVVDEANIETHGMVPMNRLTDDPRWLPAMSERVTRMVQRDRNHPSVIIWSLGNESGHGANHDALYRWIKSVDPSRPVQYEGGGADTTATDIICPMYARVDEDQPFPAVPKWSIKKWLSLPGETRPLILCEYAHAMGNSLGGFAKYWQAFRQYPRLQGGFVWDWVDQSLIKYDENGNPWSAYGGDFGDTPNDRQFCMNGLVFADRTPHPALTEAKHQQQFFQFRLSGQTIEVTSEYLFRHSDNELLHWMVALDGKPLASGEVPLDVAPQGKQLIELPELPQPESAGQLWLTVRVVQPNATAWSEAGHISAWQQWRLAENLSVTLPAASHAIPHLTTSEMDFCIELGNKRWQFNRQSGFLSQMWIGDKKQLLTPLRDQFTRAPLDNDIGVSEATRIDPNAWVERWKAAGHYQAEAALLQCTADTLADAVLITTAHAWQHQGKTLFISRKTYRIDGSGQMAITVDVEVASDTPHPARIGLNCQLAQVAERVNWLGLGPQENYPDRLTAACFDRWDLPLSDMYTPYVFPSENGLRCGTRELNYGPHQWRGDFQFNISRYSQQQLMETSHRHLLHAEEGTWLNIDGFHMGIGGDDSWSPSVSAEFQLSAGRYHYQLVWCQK

## O=S(=O)([O-])O[C@@H](CO)[C@H](O)C[S+]1CCCC1
[1]
  IC50: Not Active
[2]
  IC50: Not Active
[3]
  IC50: Not Active
[4]
  IC50: Not Active

## O=S(=O)([O-])O[C@H](CO)[C@@H](O)C[S@+]1C[C@@H](O)[C@H](O)[C@@H]1CO
[5]
  IC50: Not Active
[2]
  IC50: Not Active
[6]
  IC50: Not Active
[7]
  IC50: 380 µM
Beta-galactosidase
  IC50: No effect
[8]
  IC50: 3600 µM

## O=S(=O)([O-])O[C@@H](CO)[C@H](O)C[S@+]1C[C@@H](O)[C@H](O)[C@@H]1CO
Prunus dulcis
  IC40: 2100 µM
[9]
  IC50: 2500 µM
[10]
  IC50: Not Active
[11]
  IC50: Not Active
[12]
  IC50: 110 µM

## O=S(=O)([O-])O[C@H](CO)[C@@H](O)C[S+]1CCCC1
[2]
  IC50: Not Active
[7]
  IC50: 1000 µM
Beta-galactosidase
  IC50: No effect
[13]
  IC50: No effect

## C[S+]1C[C@@H](O)[C@H](O)[C@H]1CO.[I-] (stereo partly specified)
[14]
  IC50: 2100 µM
[15]
  IC50: 1200 µM
[16]
  IC50: 250 µM
[17]
  IC50: 360 µM
[18]
  IC50: 2200 µM
[19]
  IC50: 490 µM
[20]
  IC50: 2100 µM
[21]
  IC50: 410 µM
[22]
  IC50: 2000 µM
[23]
  IC50: 1400 µM
[24]
  IC50: Not Active
[25]
  IC50: Not Active

Source: ChEMBL document CHEMBL1134247, “Glycosidase inhibition by cyclic sulfonium compounds” (Bioorg Med Chem Lett, 2001)
